Structures are written as SMILES.

Data set [1] relates to panel of 144 protein kinases. Put plainly: SelectScreen protein kinase panel. The data set is classed as biochemical. The following applies: 144 protein kinases incl. PKC isoforms, OSR1, SPAK, WNK. The protocol: Aliquots of HEK-293 cells expressing KCC2 were exposed to 30 μM SSA, heated from 37-55° C. The remaining level of soluble native KCC2 at each temperature was measured by immunoblotting and normalized to the level seen at 37° C. which was given a value of 1. […] This panel included protein kinase C isoforms, OSR1, SPAK (STK39) and with-no-lysine kinases (WNK), all of which phosphorylate KCC2 on multiple residues to indirectly modify its activity (Kahle et al., 2013, supra; Smalley et al., 2020, supra).

Data set [2] relates to mice. The following applies: in vivo.
Data set [3] concerns mice. As to the kind of experiment: Kainic acid (KA) induced SE, EEG recording, pretreatment. The data set is classed as in vivo. The following applies: 50 mg/kg SC pretreatment; vehicle 4.2±2.4×10^−6. From the text:
This model was chosen due to the similarities with patients undergoing SE, as KA-induced seizures become refractory to benzodiazepines (BDZs) within minutes (Betjemann and Lowenstein, Lancet Neurol 14, 615-624 (2015); Crawshaw and Cock, (2020a) [Seizure: Eur. J. Epilep. 75 (2020) 145-152] Seizure 80, 282; Lee et al., 2022, supra; Reddy and Kuruba, Int J Mol Sci 14, 18284-18318 (2013)).
EEG recordings and analysis. WT C57Bl/6J adult male mice (12 weeks) were anesthetized with isofluorane and implanted with EEG/EMG electrodes and allowed to recover for 7 days prior to experimentation. […] 2 h following KA administration mice were injected with a saturating concentration of diazepam (DZ) 10 mg/kg (IP) and recordings were extended for a further 60 min. […] LabChart 8 software was used for data analysis. […]
To provide quantitative insights on the effects of KA, raw EEG recordings were subject to Fast-Fourier transformation (8K FFT size, Hann (cosine-bell), 87.50% window overlap) for frequencies between 0-100 Hz 2 h after KA injection (Lee et al., 2022, supra).

Data set [4] in a line: PK study, brain and plasma levels by LC-MS/MS. The class given is in vivo, mice. As for the experimental part: PK studies. […] Plasma and brain samples were rapidly frozen on dry ice.
Drug accumulation in the brain was examined following SC injection (FIG. 4C; 50 mg/kg).

For another data set, the target named is T1, KCC2-S940A (Homo sapiens, UniProt Q9H2X9, S963A).
T1 construct: expressed in transfected cells; host or cells: HEK-293
T1 sequence (Q9H2X9 1-1116 isoform Q9H2X9-2 S940A): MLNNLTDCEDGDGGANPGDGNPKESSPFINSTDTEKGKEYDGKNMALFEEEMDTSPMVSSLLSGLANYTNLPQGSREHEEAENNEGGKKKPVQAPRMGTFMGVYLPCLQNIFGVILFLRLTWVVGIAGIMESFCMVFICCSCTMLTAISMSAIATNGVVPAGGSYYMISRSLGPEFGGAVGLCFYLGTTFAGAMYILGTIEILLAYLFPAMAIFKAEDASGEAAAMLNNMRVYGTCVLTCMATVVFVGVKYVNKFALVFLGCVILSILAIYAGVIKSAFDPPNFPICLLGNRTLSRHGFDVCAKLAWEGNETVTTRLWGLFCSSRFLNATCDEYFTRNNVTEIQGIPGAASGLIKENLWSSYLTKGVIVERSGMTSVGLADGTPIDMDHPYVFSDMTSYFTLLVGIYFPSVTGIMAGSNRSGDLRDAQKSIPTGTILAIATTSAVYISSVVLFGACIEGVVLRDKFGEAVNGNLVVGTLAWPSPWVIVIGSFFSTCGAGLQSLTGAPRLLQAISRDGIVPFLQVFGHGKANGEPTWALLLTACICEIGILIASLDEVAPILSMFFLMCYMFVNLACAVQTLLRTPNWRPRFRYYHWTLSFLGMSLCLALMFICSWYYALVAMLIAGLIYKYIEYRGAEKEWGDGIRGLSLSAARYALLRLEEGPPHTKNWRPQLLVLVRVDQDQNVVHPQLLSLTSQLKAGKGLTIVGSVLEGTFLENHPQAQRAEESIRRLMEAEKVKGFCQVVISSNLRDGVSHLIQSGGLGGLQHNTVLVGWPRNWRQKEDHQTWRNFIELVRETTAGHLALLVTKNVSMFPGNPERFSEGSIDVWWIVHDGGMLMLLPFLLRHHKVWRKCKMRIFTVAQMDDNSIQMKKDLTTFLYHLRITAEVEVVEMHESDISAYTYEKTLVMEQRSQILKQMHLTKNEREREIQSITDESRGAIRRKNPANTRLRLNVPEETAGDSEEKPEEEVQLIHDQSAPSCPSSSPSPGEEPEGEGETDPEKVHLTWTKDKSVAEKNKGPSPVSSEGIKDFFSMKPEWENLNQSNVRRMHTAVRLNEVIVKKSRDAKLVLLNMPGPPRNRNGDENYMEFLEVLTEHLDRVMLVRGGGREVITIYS
Put plainly: Tl+ flux assay, HEK-293 cells expressing KCC2-S940A. The data set is classed as cell-based. As for the experimental part:
FLIPR TI Flux assay. HEK-293 cells were washed with HBSS, and then incubated with loading buffer containing TI sensitive fluorescent dye (https://www.moleculardevices.com), 20 μM bumetanide 20 μM ouabain and 2.5 mM probenecid for 1 h at room temperature (RT) under control conditions or with drugs in the dark using a FlexStation 3 microplate reader (Molecular Devices) and imaged […] for 30 min. Stimulus buffer was added containing 5 mM K^+/0.5 mM Tl^+ and cells were imaged every 1.5 over a 190 second time course The initial rate Tl^+ uptake (Relative Fluorescence Units (RFU) per second) was determined following addition of the stimulus buffer as outlined previously (Conway et al., 2017, supra) (Lee et al., 2022, supra).
Several studies have shown that the activity and plasma membrane accumulation of KCC2 is potentiated via phosphorylation of S940, a process mediated by the activity of protein kinase C and protein phosphatase 1 (Lee et al., 2011, supra; Lee et al., J Biol Chem 282, 29777-29784 (2007); Moore et al., Proc. Natl. Acad. Sci. U.S.A. 115, 10166-10171 (2018); Moore et al., Trends Neurosci. 40, 555-571 (2017); Silayeva et al., Proc. Natl. Acad. Sci. U.S.A. 112, 3523-3528 (2015)). […] Compared to KCC2, effects on KCC3, KCC4, and NKCC1 were only seen at concentrations more than 35-fold that of KCC2 (>100 μM) (FIG. 1G).

The subject of data set [5] is mice. As to the kind of experiment: KA induced SE, EEG, injection directly into the hippocampus. The class given is in vivo. The following applies: intrahippocampal pretreatment, DZ 2 h after KA. The protocol: 30 or 60 min later mice were injected with KA (20 mg/kg) and 2 h later with DZ as detailed above.
Data set [6] has as its system mice. Put plainly: KA induced ongoing SE, EEG, treatment 2 h after KA. The data set is classed as in vivo. The following applies: given IP 2 h after KA. The protocol:
EEG recordings and analysis. WT C57Bl/6J adult male mice (12 weeks) were anesthetized with isofluorane and implanted with EEG/EMG electrodes and allowed to recover for 7 days prior to experimentation. […] 2 h following KA administration mice were injected with a saturating concentration of diazepam (DZ) 10 mg/kg (IP) and recordings were extended for a further 60 min. […] LabChart 8 software was used for data analysis. Epileptiform activity was identified by changes in the amplitude of electrographic activity characterized by consistent changes in the power of the Fast Fourier transform (FFT) of the EEG and abnormal activity characterized by periods of rhythmic spiking lasting longer than 30 s (Moore et al., 2017, supra; Silayeva et al., 2015, supra; Sivakumaran et al., J. Neurosci. 35, 8291-8296 (2015)).
To evaluate the potential of KCC2 activators to terminate ongoing SE, the KA model described above was employed. Mice were injected with KA (20 mg/Kg; IP). […] Spectral data were then subjected to FFT and the total EEG power between 1-100 Hz of the 2 h following KA treatment (pre-drug) and 30 min following their injection (post-drug) were compared (FIG. 6B). In mice treated with DZ alone variable effects were observed, from large increases to modest reductions in EEG power, but these effects were not significant (FIG. 6C; pre=1.1±0.2×10^−6, post=4.4±7.4×10^−7 V^2, p=0.214, n=13-14 mice). […]

In data set [7] the test system is mice. Put plainly: TUNEL staining of hippocampal CA1 48 h after KA injection. The data set is classed as in vivo.
Procedure: To determine if KCC2 activators have an impact on the extent of neuronal injury, brain sections from mice that survived for 48 h after KA injection were subjected to Terminal deoxynucleotidyl transferase dUTP nick end (TUNEL) staining to visualize dead cells, and counterstained with DAPI. The number of TUNEL positive cells in the CA1 region of the hippocampus were then compared between treatment groups.

Regarding `C[C@@H]1CN(c2nc3c(c(Nc4ccc(C5CCCCC5)cc4)n2)COC3)CCO1` [Compound A, (R)—N-(4-cyclohexylphenyl)-2-(2-methylmorpholino)-5,7-dihydrofuro[3,4-d]pyrimidin-4-amine], the “activity of the kinase panel” value in data set [1] is “did not modify the activity”. The “effects on mouse behavior in the open field” value in the data set with mice [2] is reported as “no gross effects on mouse behavior”. In addition, the “total EEG power 2 h after KA (pre DZ)” value with mice [3] is recorded as 6.9±3.2×10^−7 V^2. In data set [4] (50 mg/kg SC), the “brain level 8 h later” value is reported as “maintained” and the “time of maximal concentration in the brain” value was 4 h. Moreover, in data set [4] (mouse, in vivo, 25 mg/kg IV bolus, read-out: accumulation in brain and plasma, third value not assigned), the concentration at 30 min is 11.2 µM. Further, the “activity of KCC2-S940A construct” value on KCC2-S940A was “increased the activity of KCC2-S940A construct”. The “effect of DZ on seizure parameters in pretreated mice” value with mice [5] is reported as “DZ significantly reduced seizure parameters”.

As to `CN1C(=O)CN=C(c2ccccc2)c2cc(Cl)ccc21` [DZ, diazepam], the “mean time to suppression (EEG power reduced to 50%)” value in the data set on mice [6] turned out to be 32.5 ± 6.7 min. For the same compound, the “TUNEL positive CA1 cells” value with mice [7] is on record as 40.93±3.35 dead cells/ROI.
